“And” between values parts separate entries of the source, which are not always exact repeats. Equal values may be shown once.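 Briefly, cells in 96-well plates were exposed to five compound concentrations for 48 h, and endpoints were estimated by linear interpolation. At the GI50, growth is halved. Definition used: TGI = concentration required for complete inhibition of growth.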
Key:
Test in all cases: NCI anticancer screen, dose series, 48 h
SF-295 CNS = test system: SF-295 CNS
786-0 renal = test system: 786-0 renal
UO-31 renal = test system: UO-31 renal
OVCAR-3 ovarian = test system: OVCAR-3 ovarian
MOLT-4 leukemia = test system: MOLT-4 leukemia
CAKI-1 renal = test system: CAKI-1 renal
PC-3 prostate = test system: PC-3 prostate
OVCAR-4 ovarian = test system: OVCAR-4 ovarian
SNB-75 CNS = test system: SNB-75 CNS
MALME-3M melanoma = test system: MALME-3M melanoma

Row | SMILES | GI50 (SF-295 CNS) [µM] | TGI (SF-295 CNS) | GI50 (786-0 renal) [µM] | TGI (786-0 renal) [µM] | GI50 (UO-31 renal) [µM] | TGI (UO-31 renal) | GI50 (OVCAR-3 ovarian) [µM] | TGI (OVCAR-3 ovarian) [µM] | GI50 (MOLT-4 leukemia) [µM] | TGI (MOLT-4 leukemia) [µM] | GI50 (CAKI-1 renal) [µM] | TGI (CAKI-1 renal) [µM] | GI50 (PC-3 prostate) [µM] | TGI (PC-3 prostate) [µM] | TGI (OVCAR-4 ovarian) [µM] | TGI (SNB-75 CNS) [µM] | TGI (MALME-3M melanoma) | GI50 (OVCAR-4 ovarian) [µM] | GI50 (SNB-75 CNS) [µM] | GI50 (MALME-3M melanoma) [µM]
1 | COc1cc(/C=C2\CC3C4CC=C5C[C@@H](OC(C)=O)CC[C@]5(C)C4CC[C@]3(C)C2=O)ccc1OCCCn1ccnc1 (some centres undefined) | 9.22 | 22.3 µM | 8.87 | 16 | 9.14 | 19.9 µM | 9.79 | 21.2 | 20.5 | > 50 | 5.81 | 27.3 | 18 | 42.1 |  |  |  |  |  | 
2 | O=C1C[C@@H]2C(COC(=O)c3ccccc3)N(OCc3ccccc3)C[C@@H]2O1 (some centres undefined) |  |  |  | > 100 |  | > 100 µM |  | > 100 |  | > 100 |  |  |  |  | > 100 | > 100 | > 100 µM |  |  | 
3 | NC(=O)N/N=C/C(/C=N/NC(N)=O)[N+](=O)[O-] |  | > 100 µM |  | > 100 |  |  |  | > 100 |  |  |  | > 100 |  |  | > 100 | > 100 | > 100 µM |  |  | 
4 | CC(=O)OCCOCNC(=S)N/N=C(\C)c1cnc2ccccc2n1 |  | > 100 µM |  | > 100 |  | > 100 µM |  | > 100 |  | > 100 |  |  |  |  | > 100 | > 100 | > 100 µM |  |  | 
5 | Cc1sc(C)c(Cc2c(C)sc(C)c2CCl)c1CCl | > 100 | > 100 µM | > 100 | > 100 | > 100 | > 100 µM | > 100 | > 100 | > 100 | > 100 | > 100 | > 100 |  |  | > 100 | > 100 | > 100 µM | > 100 | 51.5 | 81.4
6 | CO/C1=C\C(C)=C\C(C)C(O)C(C)C/C(C)=C/C=C/C(OC)C(C(C)C(O)C(C)C2(O)CC(O)C(C)C(C(C)C)O2)OC1=O (centres undefined) |  | 0.0215 µM and 0.0198 µM |  | 10.4 |  | 0.0587 µM and 0.0234 µM |  |  |  | 11.7 | 0.021 | 9.89 |  |  | 15.6 |  | 0.0914 µM and 0.0629 µM |  | 0.0396 | 0.0237
7 | CCNC(=O)C#CC(=O)NCC | > 10 | > 100 µM | > 10 | > 100 | > 10 | > 100 µM | > 10 | > 100 | > 10 | > 100 | > 10 | > 100 |  |  | > 100 | > 100 | > 100 µM | > 10 | > 10 | > 100
8 | Cc1nc2c(n1C(C)(C)C)C(=O)c1ccccc1C2=O |  | > 100 µM |  | > 100 |  | > 100 µM |  | > 100 |  | > 100 |  |  |  |  | > 100 | > 100 | > 100 µM |  |  | 
9 | Nc1ccc(S(=O)(=O)C23CC4CC(CC(C4)C2)C3)cc1 |  | > 100 µM |  | > 100 |  | > 100 µM |  | > 100 |  |  |  | > 100 |  | > 100 |  |  | > 100 µM |  |  | 
10 | COc1ccccc1-c1cc(=O)c2ccccc2[nH]1 |  | > 100 µM |  | > 100 |  | > 100 µM |  | > 100 |  | > 100 |  |  |  |  |  | > 100 | > 100 µM |  |  | 
11 | CC(C)(C)NCc1cc(C(C)(C)C)cc(-c2ccc(Cl)cc2)c1O |  | 36.6 µM |  | 26.8 |  | 15.1 µM |  | 29.5 |  |  |  | 25.6 |  |  | 41.3 | 22.7 | 27.8 µM |  |  | 
12 | O=C(Nc1ccc(Cl)cc1)c1ccc(NC2=C(Cl)C(=O)N(Cc3ccccc3)C2=O)cc1 | 5.8 | 19.9 µM | 10.8 | 24.4 | 14.7 | 29.8 µM | 12.6 | 28 | 3.26 | 44.8 | 15.3 | 31.5 | 11.4 | 27.1 | 43.4 | 52.5 |  | 18.3 | 20.1 | 
13 | ClC(Cl)c1nc(-c2cccnc2)n2nc(-c3ccccc3)cc2n1 | 2.27 | 6.52 µM | 3.05 | > 100 |  |  | 1.61 | 4.16 | 0.984 | > 100 | 1.73 | 5.51 | 1.71 | 4.68 | 5.78 |  | 3.25 µM | 2.03 |  | 1.59
14 | COc1cccc(NC(=O)CC(=O)N2N=C(N(CCC#N)c3ccccc3C)CC2c2ccccc2)c1 (centres undefined) |  | > 100 µM |  | > 100 |  | > 100 µM |  | > 100 |  | > 100 |  | > 100 |  |  | > 100 | > 100 | > 100 µM |  |  | 
15 | O=C(Nc1nc2ccccc2n1Cc1ccccc1)NC12CC3CC(CC(C3)C1)C2 |  | 37 µM |  | 92.9 |  | > 100 µM |  | > 100 |  | > 100 |  | > 100 |  |  | 82.8 | 49.8 | > 100 µM |  |  | 
16 | CN1NC2(CCCCC2)ON=C1c1ccccc1 |  | > 100 µM |  | > 100 |  |  |  | > 100 |  | > 100 |  | > 100 |  |  | > 100 | > 100 | > 100 µM |  |  | 
17 | Cc1nc2sc(C(=O)Nc3cccc4ccccc34)c(N)c2cc1C(=O)c1ccccc1 |  |  | 2.38 | > 50 | 2.11 | > 50 µM |  |  | 2.27 | > 50 | 1.62 | > 50 | 1.78 | > 50 | > 50 | > 50 | > 50 µM | 3.21 | 1.04 | 3.86
18 | O=C(O)CCCCCOc1cccnc1/C=N/NC1=NCCN1 |  | > 100 µM |  | > 100 |  | > 100 µM |  | > 100 |  | > 100 |  | > 100 |  |  | > 100 | 91.2 | > 100 µM |  |  | 
19 | COc1ccc2c(c1OC)C1=C(C2=O)c2cc3c(cc2CCN1)OCO3 |  | > 100 µM |  | > 100 |  | > 100 µM |  | 90.7 |  | 83.9 |  | 83 |  |  | > 100 | 5.9 | > 100 µM |  |  | 
20 | CCC(=O)C(C)C1=Nc2nnc(CCCCCCCc3nnc4n3C(=O)C(C(C)C(=O)CC)=N4)n2C1=O (centres undefined) |  | > 100 µM |  | > 100 |  | > 100 µM |  | > 100 |  | > 100 |  | > 100 |  |  |  | > 100 | > 100 µM |  |  | 

From PubChem BioAssay (NCI)
